In the NIST ThermoML archive (doi:10.1021/je500804j):

Test: mn = molality of the nth substance listed, in mol/kg
Details: 101 kPa, Liquid, Alternating current cell with electrodes

CCCCCCCC[N+](C)(C)CCCCCC[N+](C)(C)CCCCCCCC.[Br-].[Br-] + O
Details | electrical conductivity [S/m]
313.15 K, m1 = 0.1169 | 1.553
318.15 K, m1 = 0.00396 | 0.09519
318.15 K, m1 = 0.00782 | 0.2003
318.15 K, m1 = 0.01158 | 0.2945
318.15 K, m1 = 0.01525 | 0.381
318.15 K, m1 = 0.01883 | 0.4611
318.15 K, m1 = 0.02233 | 0.5339
318.15 K, m1 = 0.02574 | 0.6047
318.15 K, m1 = 0.02907 | 0.6691
318.15 K, m1 = 0.03233 | 0.7314
318.15 K, m1 = 0.03551 | 0.7874
318.15 K, m1 = 0.03862 | 0.8418
318.15 K, m1 = 0.04166 | 0.8941
318.15 K, m1 = 0.04463 | 0.9453
318.15 K, m1 = 0.04754 | 0.9898
318.15 K, m1 = 0.05038 | 1.036
318.15 K, m1 = 0.05589 | 1.12
318.15 K, m1 = 0.05856 | 1.154
318.15 K, m1 = 0.06117 | 1.192
318.15 K, m1 = 0.06373 | 1.221
318.15 K, m1 = 0.06624 | 1.254
318.15 K, m1 = 0.06869 | 1.281
318.15 K, m1 = 0.0711 | 1.313
318.15 K, m1 = 0.07346 | 1.338
318.15 K, m1 = 0.07577 | 1.367
318.15 K, m1 = 0.07804 | 1.392
318.15 K, m1 = 0.08027 | 1.412
318.15 K, m1 = 0.08245 | 1.437
318.15 K, m1 = 0.08459 | 1.458
318.15 K, m1 = 0.0867 | 1.474
318.15 K, m1 = 0.08876 | 1.498
318.15 K, m1 = 0.09078 | 1.51
318.15 K, m1 = 0.09277 | 1.532
318.15 K, m1 = 0.09473 | 1.547
318.15 K, m1 = 0.09665 | 1.567
318.15 K, m1 = 0.09853 | 1.582
318.15 K, m1 = 0.1004 | 1.591
318.15 K, m1 = 0.1022 | 1.609
318.15 K, m1 = 0.104 | 1.626
318.15 K, m1 = 0.1057 | 1.636
318.15 K, m1 = 0.1075 | 1.647
318.15 K, m1 = 0.1092 | 1.659
318.15 K, m1 = 0.1109 | 1.674
318.15 K, m1 = 0.1125 | 1.687
318.15 K, m1 = 0.1141 | 1.699
318.15 K, m1 = 0.1157 | 1.713
318.15 K, m1 = 0.1173 | 1.724
318.15 K, m1 = 0.1188 | 1.732
318.15 K, m1 = 0.1203 | 1.749
318.15 K, m1 = 0.1218 | 1.761
323.15 K, m1 = 0.00396 | 0.123
323.15 K, m1 = 0.00782 | 0.2241
323.15 K, m1 = 0.01158 | 0.3183
323.15 K, m1 = 0.01526 | 0.4132
323.15 K, m1 = 0.01884 | 0.5013
323.15 K, m1 = 0.02233 | 0.5818
323.15 K, m1 = 0.02575 | 0.6582
323.15 K, m1 = 0.02908 | 0.7289
323.15 K, m1 = 0.03234 | 0.7956
323.15 K, m1 = 0.03552 | 0.8617
323.15 K, m1 = 0.03863 | 0.9197
323.15 K, m1 = 0.04167 | 0.9784
323.15 K, m1 = 0.04464 | 1.033
323.15 K, m1 = 0.04755 | 1.084
323.15 K, m1 = 0.0504 | 1.133
323.15 K, m1 = 0.05591 | 1.222
323.15 K, m1 = 0.05858 | 1.262
323.15 K, m1 = 0.06119 | 1.299
323.15 K, m1 = 0.06375 | 1.336
323.15 K, m1 = 0.06625 | 1.367
323.15 K, m1 = 0.06871 | 1.396
323.15 K, m1 = 0.07112 | 1.427
323.15 K, m1 = 0.07348 | 1.453
323.15 K, m1 = 0.07579 | 1.485
323.15 K, m1 = 0.07806 | 1.514
323.15 K, m1 = 0.08029 | 1.542
323.15 K, m1 = 0.08247 | 1.564
323.15 K, m1 = 0.08461 | 1.59
323.15 K, m1 = 0.08672 | 1.613
323.15 K, m1 = 0.08878 | 1.634
323.15 K, m1 = 0.09081 | 1.651
323.15 K, m1 = 0.0928 | 1.671
323.15 K, m1 = 0.09475 | 1.694
323.15 K, m1 = 0.09667 | 1.71
323.15 K, m1 = 0.09855 | 1.728
323.15 K, m1 = 0.1004 | 1.745
323.15 K, m1 = 0.1022 | 1.761
323.15 K, m1 = 0.104 | 1.776
323.15 K, m1 = 0.1058 | 1.788
323.15 K, m1 = 0.1075 | 1.804
323.15 K, m1 = 0.1092 | 1.816
323.15 K, m1 = 0.1109 | 1.832
323.15 K, m1 = 0.1125 | 1.841
323.15 K, m1 = 0.1141 | 1.854
323.15 K, m1 = 0.1157 | 1.866
323.15 K, m1 = 0.1173 | 1.881
323.15 K, m1 = 0.1188 | 1.893
323.15 K, m1 = 0.1203 | 1.901
323.15 K, m1 = 0.1218 | 1.917
